Measured values: PubChem BioAssay AID1329 (NMMLSC, 2008)
Activity calls are given as the source filed them. No rule for the calls is given here.

target: Induced myeloid leukemia cell differentiation protein Mcl-1 (Homo sapiens) (UniProt Q07820); assay: modulators of Bim peptide binding to Mcl-1, dose response, biochemical, bead-based flow cytometry, multiplexed, human (AID 1329); conditions: Bim peptide-Mcl-1 binding, MCF
Sequence (Q07820 whole entry, looked up): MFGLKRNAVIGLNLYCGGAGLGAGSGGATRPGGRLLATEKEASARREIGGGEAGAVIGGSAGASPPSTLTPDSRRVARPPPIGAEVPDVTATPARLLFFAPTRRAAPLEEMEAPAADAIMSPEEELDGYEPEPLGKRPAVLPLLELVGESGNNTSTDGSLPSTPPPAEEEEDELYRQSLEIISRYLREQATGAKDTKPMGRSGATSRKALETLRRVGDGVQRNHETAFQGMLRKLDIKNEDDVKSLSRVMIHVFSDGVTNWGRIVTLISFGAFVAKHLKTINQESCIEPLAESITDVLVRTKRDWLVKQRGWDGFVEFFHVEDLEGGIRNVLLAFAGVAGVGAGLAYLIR

SMILES | percent span
Cc1sc(NC(=O)Cn2cnnn2)nc1-c1ccc(Cl)cc1 | inactive
CC(C)(C)NC(=O)COc1ccc(CNc2ccc3[nH]c(=O)[nH]c3c2)cc1 | inactive
COC(=O)c1ccc(-n2nnnc2SCC(=O)Nc2cc(OC)ccc2OC)cc1 | inactive
Cc1c(N2C(=O)c3ccc4c5c(ccc(c35)C2=O)CC4)c(=O)n(-c2ccccc2)n1C | inactive
CN=c1scc(-c2cccs2)n1/N=C/c1ccc(O)c(O)c1O | inactive
Cc1ccc(/C=C2/NC(=O)N(Cc3ccc(Br)cc3)C2=O)o1 | inactive
O=C(CSc1nc2ccsc2c(=O)n1Cc1ccc(C(=O)O)cc1)NCC1CCCO1 (stereo unspecified) | inactive
S=C1NC2=C(CCC/C2=C\c2ccccc2)C(c2ccccc2)N1 (stereo unspecified) | inactive
CS(=O)(=O)NN1C(=O)c2ccccc2NC1c1cccs1 (stereo unspecified) | inactive
COc1ccccc1C1=Nc2cccc3cccc(c23)N1 | inactive
O=C(c1cc2ccccc2oc1=O)N(c1ccccc1)C1C=CS(=O)(=O)C1 (stereo unspecified) | inactive
CCOC(=O)c1ccc(NC(=O)CSCCC(=O)O)cc1 | inactive
Cc1nnc(NCc2n[nH]c(=O)c3ccccc23)c2ccccc12 | inactive
COc1ccc2oc(-c3ccccc3)c(C(=O)N3CCOCC3)c2c1 | inactive
Cc1ccccc1-n1c(SCc2cccc(F)c2)nc2[nH]ncc2c1=O | inactive
N=C1C(c2nc3ccccc3s2)=C(O)CN1Cc1ccccc1 | inactive
COc1cc(NC(=O)c2ccc3c(c2)OCO3)ccc1NC(=O)c1ccco1 | inactive
COc1cc(/C=C2/NC(=O)N(Cc3ccccc3F)C2=O)ccc1O | inactive
CCN(CC)S(=O)(=O)c1cccc(C(=O)N/N=C/c2ccc(O)c(O)c2O)c1 | inactive
Cc1ccc(C)c(NC(=O)C(=O)NCc2ccccn2)c1 | inactive
CCOC(=O)C1=C(CP(=O)(c2ccccc2)c2ccccc2)NC(=O)NC1c1ccc(OC)cc1 (stereo unspecified) | inactive
C/C(=N\NC(=O)Cn1nc(C)c([N+](=O)[O-])c1C)c1ccc(O)cc1 | inactive

SMILES | percent span
COc1cccc(/C=N/Nc2nn3cnnc3c3ccccc23)c1 | inactive
CC(NCc1ccc(-c2ccccc2)cc1)C(O)c1ccccc1 (stereo unspecified) | inactive
COc1ccc(S(=O)(=O)NCCSc2ccccc2)cc1OC | inactive
O=C(NCC1CCCO1)c1ccc2c(=O)n(-c3ccc(F)cc3)c(=S)[nH]c2c1 (stereo unspecified) | inactive
CCN(CC)c1ccc(NC(=O)COc2ccccc2C)cc1S(=O)(=O)Nc1ccccc1OC | inactive
O=C(/C=C/c1ccc(-c2ccccc2)o1)c1ccccc1 | inactive
Nc1ccccc1N=c1ssnc1Cl | inactive
COc1ccc(C(=O)Nc2ccc(C(=O)OCC(=O)c3cccc4ccccc34)cc2)cc1 | inactive
c1coc(C2=Nc3cccc4cccc(c34)N2)c1 | inactive
Fc1cccc(Nc2nc(-c3ccncc3)nc3ccccc23)c1 | inactive
CS(=O)(=O)NN1C(=O)c2ccccc2NC1c1ccccc1 (stereo unspecified) | inactive
COc1cccc(/C=C2/SC(=O)N(C)C2=O)c1OCc1ccc(C(=O)O)cc1 | inactive
Cc1ccc(-c2cc(-c3ccccc3Cl)c(C#N)c(N)n2)o1 | inactive
Cc1ccc(-c2cc(C(=O)Nc3cccnc3)c3ccccc3n2)o1 | inactive
Cc1cc2nc(/C(C#N)=C/c3ccncc3)[nH]c2cc1C | inactive
COc1ccc2nc(NC(=O)c3ccc(-c4cccc([N+](=O)[O-])c4)o3)sc2c1 | inactive
O=S1(=O)N=C(N(CCO)/N=C/c2ccncc2)c2ccccc21 | inactive
Cc1ccc2c(C)c(C(=O)Nc3nnc(C)s3)oc2c1 | inactive
c1ccc(-c2nnc(OCCN3CCOCC3)c3ccccc23)cc1 | inactive
O=C(Nc1nnc(SCc2ccccn2)s1)C1CC(=O)N(c2ccccc2)C1 (stereo unspecified) | inactive
Cc1ccc(C)c(Oc2ncnc(N)c2[N+](=O)[O-])c1 | inactive
COc1ccc(N2C(=O)C(Cl)=C(Oc3cccc(OC)c3)C2=O)cc1 | inactive

SMILES | percent span
Cc1ccc(N=Cc2c(O)n(-c3ccc4c(c3)OCO4)c(=O)c3ccccc23)cc1 | inactive
CCN1CCN(CC(=O)c2c[nH]c3ccc(C)cc23)CC1 | inactive
CN(CCc1ccccn1)C(=O)CCC1CCCN(C(=O)NC2CCCCC2)C1 (stereo unspecified) | inactive
Cc1ccnc(NS(=O)(=O)c2ccc(NS(=O)(=O)c3cccs3)cc2)n1 | inactive
O=C(Cn1c(-c2ccccc2)noc1=O)N1CCC(Cc2ccccc2)CC1 | inactive
COc1cccc2c(SCC(=O)N/N=C/c3ccc(O)c(O)c3)cc(C)nc12 | inactive
CN(C)c1ccc(C(=O)/C=C/c2ccc(Br)cc2)cc1 | inactive
CN=C(NC1CCCCC1)c1ccc(Cl)cc1 | inactive
COC(=O)CSc1ncnc2c1sc1nc(-c3ccco3)c3c(c12)CC(C)(C)OC3 | inactive
NC(=O)c1sc2nc3c(c(-c4ccco4)c2c1N)CCC3 | inactive
COc1ccccc1N(C)S(=O)(=O)c1ccc(C(=O)OCC(N)=O)cc1 | inactive
CS(=O)(=O)NN1C(=O)c2ccccc2NC1c1cccc2cccnc12 (stereo unspecified) | inactive
CCCC1(C(=O)OCC)NC(c2cc(OC)c(OC)c(OC)c2)C2C(=O)N(CC)C(=O)C21 (stereo unspecified) | inactive
O=C(CNC(=O)c1ccco1)NCC(=O)OCc1ccccc1Br | inactive
O=C(Nc1ccccc1N1CCOCC1)c1cccs1 | inactive
CN(C)c1ccc(C=C2C(=O)NC(=O)NC2=O)cc1[N+](=O)[O-] | inactive
Cc1nc2scc(-c3ccccc3)c2c(=O)n1N=C1C=CC(=O)C=C1 | inactive
Cc1cccc(C(=O)N2CCC(c3nc(-c4ccc(S(=O)(=O)N5CCOCC5)cc4)no3)CC2)c1 | inactive
CCOC(=O)c1c(NC(C)=O)sc2c(O)c(Br)cc(Br)c12 | inactive
O=C(Nc1ccccc1)Nc1ccc2ncoc2c1 | inactive
CCOC(=O)CSc1nnc(-c2cccc(Cl)c2)n1CC | inactive
Cc1ccc(Nc2nc(-c3c(C)nc4ncccn34)cs2)cc1 | inactive

SMILES | percent span
O=C1c2ccccc2-c2onc3ccc(NCc4ccco4)c1c23 | inactive
CCOc1ccccc1CNc1ccc(O)cc1 | inactive
O=C(C1=NN(c2ccccc2)C2C(=O)N(c3ccccc3)C(=O)C12)c1ccccc1 (stereo unspecified) | inactive
O=C(NCCCN1CCCC1=O)NC1CCCCC1 | inactive
N#Cc1cccc(N=c2ssnc2Cl)c1 | inactive
CNC(=S)N(Cc1cccs1)Cc1cc2ccc(OC)cc2[nH]c1=O | inactive
Cc1ccc(C(NC(=O)C(C)C)c2cc([N+](=O)[O-])c3cccnc3c2O)cc1 (stereo unspecified) | inactive
CCOC(=O)c1cc2c(=O)n3cccc(C)c3nc2n(Cc2ccco2)c1=NC(=O)c1ccccc1 | inactive
O=C(CCCN1C(=O)c2cccc3cccc(c23)C1=O)N1CCN(c2ccccn2)CC1 | inactive
COc1ccc(NC(=O)c2sccc2SCc2cccc(C(F)(F)F)c2)cc1 | inactive
CCSc1ncnc2sc(C)c(C)c12 | inactive
CC[n+]1c(/C=C/C=C/N(C(C)=O)c2ccccc2)sc2ccccc21 | inactive
CC1N(C)c2cccc3cccc(c23)N1C | inactive
Cc1ccc(C(=O)NNC(=O)c2ccc3ncccc3c2)cc1 | inactive
Cc1ccc(OCC(=O)NCc2ccccn2)c(Br)c1 | inactive
CC(=O)c1ccc2c(c1)C1C=CCC1C(c1ccncc1)N2 (stereo unspecified) | inactive
Clc1nssc1=Nc1ccc(Br)cc1 | inactive
Cc1nn(-c2ccc(Cl)cc2)c(Cl)c1/C=C(\C#N)C(N)=O | inactive
COc1cccc(NC(=O)CSc2nncn2N)c1 | inactive
COc1ccc(-n2c(NC(=O)c3ccco3)c(C#N)c3nc4ccccc4nc32)cc1 | inactive
Cc1ccc(/C=C2/NC(=O)N(Cc3ccccc3)C2=O)o1 | inactive
CC1CC2=C(NC(=S)NC2c2ccccc2F)/C(=C/c2ccccc2F)C1 (stereo unspecified) | inactive

SMILES | percent span
O=C(OCc1nc2ccccc2[nH]1)C12CC3CC(CC(C3)C1)C2 | inactive
O=C(Nc1ccccn1)c1cc2ccccc2o1 | inactive
COc1ccc(C2=Nn3c(nnc3-c3ccccn3)SC2)cc1OC | inactive
Cc1ccc(O)c(NC2=C(Cl)C(=O)N(Cc3ccccc3)C2=O)c1 | inactive
Clc1nssc1=Nc1ccccc1 | inactive
Cc1ccc(N=C2NC(=O)/C(=C/C=C/c3ccco3)S2)cc1 | inactive
Cc1ccc(-n2c(CSc3nc(C)cc(C)n3)nnc2SCC(=O)NCc2ccco2)cc1 | inactive
COc1ccc(C(=S)N2CCCCCC2)cc1 | inactive
CCOc1ccccc1/C=N/NC(=O)CNC(=O)COc1ccccc1 | inactive
COc1cccc(/C=N/Nc2nn3cnnc3c3ccccc23)c1O | inactive
COc1ccccc1NC(=O)CSc1ncn(-c2ccccc2)n1 | inactive
CC(C)n1nnnc1SCC(=O)N1CCN(C(=O)c2ccco2)CC1 | inactive
O=C1NC(=S)S/C1=C/c1ccc(N2CCOCC2)o1 | inactive
CCCOc1ccc(-c2c(C(=O)N/N=C/c3ccc(OC)cc3)nnn2-c2nonc2N)cc1 | inactive
CCOc1cc(CNc2ccc(N3CCCCC3)cc2)cc(Br)c1OCC(=O)NC(C)(C)C | inactive
OC(COc1ccc2cc(Br)ccc2c1)CN1CCOCC1 (stereo unspecified) | inactive
CCOc1ccc(C2=Nn3c(nnc3-c3ccccn3)SC2)cc1 | inactive
Fc1ccc(/C=C2\CCCC3=C2NC(=S)NC3c2ccc(F)cc2)cc1 (stereo unspecified) | inactive
